The assay deals with DNMT1 (Homo sapiens, UniProt P26358). The assay can be described thus: biolayer interferometry (Octet K2), His-tagged DNMT1 on NTA biosensor. It is filed as binding. A general note: BLI is a label-free optical method that tracks binding on a fibre tip over time.

The Kd is the equilibrium constant for the complex coming apart. Read a low Kd as higher affinity.

Sequence of DNMT1 (P26358 whole entry): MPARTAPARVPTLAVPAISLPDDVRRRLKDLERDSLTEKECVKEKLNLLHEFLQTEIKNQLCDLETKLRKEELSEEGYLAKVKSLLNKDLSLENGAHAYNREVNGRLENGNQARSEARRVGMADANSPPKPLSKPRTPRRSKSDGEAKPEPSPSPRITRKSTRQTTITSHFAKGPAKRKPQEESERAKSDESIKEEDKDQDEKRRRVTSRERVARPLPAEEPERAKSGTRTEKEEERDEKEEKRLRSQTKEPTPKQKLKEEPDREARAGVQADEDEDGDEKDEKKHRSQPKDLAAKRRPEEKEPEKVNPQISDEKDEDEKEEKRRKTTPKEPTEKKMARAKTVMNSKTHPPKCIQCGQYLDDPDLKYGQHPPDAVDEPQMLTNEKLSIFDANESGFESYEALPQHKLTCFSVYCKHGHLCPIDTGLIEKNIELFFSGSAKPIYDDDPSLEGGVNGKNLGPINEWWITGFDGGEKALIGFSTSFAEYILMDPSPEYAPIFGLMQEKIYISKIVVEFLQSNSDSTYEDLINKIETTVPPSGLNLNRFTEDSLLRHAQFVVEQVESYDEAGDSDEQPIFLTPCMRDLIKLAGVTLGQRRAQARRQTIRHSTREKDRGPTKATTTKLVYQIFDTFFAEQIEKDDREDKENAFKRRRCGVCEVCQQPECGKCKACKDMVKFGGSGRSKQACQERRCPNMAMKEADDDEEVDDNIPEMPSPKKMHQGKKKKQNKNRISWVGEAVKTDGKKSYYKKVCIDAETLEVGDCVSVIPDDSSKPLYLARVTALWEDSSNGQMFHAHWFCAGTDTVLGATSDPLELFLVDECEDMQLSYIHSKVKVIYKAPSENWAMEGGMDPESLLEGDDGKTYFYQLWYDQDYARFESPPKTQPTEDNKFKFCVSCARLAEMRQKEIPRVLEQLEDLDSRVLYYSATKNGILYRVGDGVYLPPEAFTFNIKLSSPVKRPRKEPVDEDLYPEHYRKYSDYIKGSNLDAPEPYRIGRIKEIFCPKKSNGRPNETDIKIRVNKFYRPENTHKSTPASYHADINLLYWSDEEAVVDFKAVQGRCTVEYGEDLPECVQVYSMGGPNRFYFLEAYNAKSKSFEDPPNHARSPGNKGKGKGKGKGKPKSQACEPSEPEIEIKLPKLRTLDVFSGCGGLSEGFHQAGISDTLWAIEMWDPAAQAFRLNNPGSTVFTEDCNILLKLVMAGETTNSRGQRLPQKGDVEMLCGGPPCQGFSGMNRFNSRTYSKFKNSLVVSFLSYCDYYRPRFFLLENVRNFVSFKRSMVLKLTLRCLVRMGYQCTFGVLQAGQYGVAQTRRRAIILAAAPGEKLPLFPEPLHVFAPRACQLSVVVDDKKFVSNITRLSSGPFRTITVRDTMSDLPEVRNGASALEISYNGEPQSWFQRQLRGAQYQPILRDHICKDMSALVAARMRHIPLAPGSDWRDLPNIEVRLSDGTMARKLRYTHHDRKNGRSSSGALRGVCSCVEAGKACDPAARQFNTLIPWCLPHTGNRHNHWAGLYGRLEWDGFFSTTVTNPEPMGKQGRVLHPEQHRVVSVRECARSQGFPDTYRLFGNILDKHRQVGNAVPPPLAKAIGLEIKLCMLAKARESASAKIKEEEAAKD

As for `Cc1cccc2c(NCc3ccc(C(=O)Nc4ccccc4N)cc3)c3ccccc3nc12` [8a, N-(2-aminophenyl)-4-(((4-methylacridin-9-yl)amino)methyl) benzamide], the Kd was determined as 1.9 nM.

These data come from paper PMC8197214, “8a, a New Acridine Antiproliferative and Pro-Apoptotic Agent Targeting HDAC1/DNMT1” (International Journal of Molecular Sciences, 2021).
